US20230339970A1, “CASEIN KINASE 1 DELTA MODULATORS” (priority 2020, published 2023)

Tests used:
[1] = target: T1, human CSNK1D (Homo sapiens, UniProt P48730); experiment: Whole Cell nBRET CSNK1D Binding Assay; details: living CHO cells stably expressing human CSNK1D tagged with nanoluciferase; NanoBret tracer 130 nM; 2 hours at 37 C
T1 construct: expressed in transfected cells

[2] = target: T2, human recombinant GST cleaved CSNK1D (Homo sapiens, UniProt P48730); experiment: Purified Enzyme Assay (ADP-Glo CSNK1D Kinase Assay); assay type: biochemical; details: 2 nM CSNK1D; peptide substrate 150 μM; ATP 20 μM; 45 minutes at room temperature
T2 construct: GST (cleaved yes); purchased University of Dundee clone DU 19064
T2 sequence (P48730 whole entry): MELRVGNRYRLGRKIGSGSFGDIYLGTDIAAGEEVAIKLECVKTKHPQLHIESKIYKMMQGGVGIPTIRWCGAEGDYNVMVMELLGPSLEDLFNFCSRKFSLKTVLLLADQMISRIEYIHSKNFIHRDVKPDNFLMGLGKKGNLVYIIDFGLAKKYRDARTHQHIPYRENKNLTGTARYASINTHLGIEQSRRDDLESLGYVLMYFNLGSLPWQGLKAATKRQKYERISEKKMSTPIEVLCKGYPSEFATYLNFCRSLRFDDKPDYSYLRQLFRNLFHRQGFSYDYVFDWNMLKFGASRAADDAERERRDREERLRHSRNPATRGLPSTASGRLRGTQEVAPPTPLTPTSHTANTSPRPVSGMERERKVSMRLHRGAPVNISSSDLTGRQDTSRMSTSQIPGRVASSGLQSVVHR
Outline: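 Percent activity derived from ADP-Glo quantification of ADP produced. Reactions: compound dose-response with human recombinant GST-cleaved CSNK1D, ATP and substrate peptide PLSRTL-pS-VASLPGL, incubated 45 min at room temperature.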

T1 sequence (P48730 whole entry): as above

Structure (SMILES) | IC50 [1] [nM] | IC50 [2] [nM]
Cc1cc(-c2c(-c3ccc(F)cn3)nn3c2OCCC3)c2cn[nH]c2n1 [Example 187, 2-(5-Fluoropyridin-2-yl)-3-(6-methyl-1H-pyrazolo[3,4-b]pyridin-4-yl)-6,7-dihydro-5H-pyrazolo[5,1-b][1,3]oxazine] | 330 | 8
C[C@@H]1[C@@H](C)OCc2c(-c3ccnc4[nH]ncc34)c(-c3ccc(F)cn3)nn21 (stereo in doubt) [Example 118, (6*R,7*R)-2-(5-Fluoropyridin-2-yl)-6,7-dimethyl-3-(1H-pyrazolo[3,4-b]pyridin-4-yl)-6,7-dihydro-4H-pyrazolo[5,1-c][1,4]oxazine] | 1160 | 49
Fc1ccc(-c2nn3c(c2-c2ccnc4[nH]ncc24)CO[C@@H](C2CCC2)C3)nc1 (single isomer, unassigned) [Example 111, (*S)-6-Cyclobutyl-2-(5-fluoropyridin-2-yl)-3-(1H-pyrazolo[3,4-b]pyridin-4-yl)-6,7-dihydro-4H-pyrazolo[5,1-c][1,4]oxazine] | 1070 | 36
Fc1ccc(-c2nn3c(c2-c2ccn4nccc4c2)OCCC3)nc1 [Example 440, 2-(5-Fluoropyridin-2-yl)-3-(pyrazolo[1,5-a]pyridin-5-yl)-6,7-dihydro-5H-pyrazolo[5,1-b][1,3]oxazine] | 516 | 44
Fc1cncc(-c2nn3c(c2-c2ccnc4[nH]ncc24)COCC3)c1 [Example 76, 2-(5-Fluoro-3-pyridyl)-3-(1H-pyrazolo[3,4-b]pyridin-4-yl)-6,7-dihydro-4H-pyrazolo[5,1-c][1,4]oxazine] | 2930 | 168
Fc1ccc(-c2nn3c(c2-c2ccnc4[nH]ncc24)C(F)(F)CC3)nc1 [Example 14, 4-(4,4-Difluoro-2-(5-fluoropyridin-2-yl)-5,6-dihydro-4H-pyrrolo[1,2-b]pyrazol-3-yl)-1H-pyrazolo[3,4-b]pyridine] | 293 | 27
[2H]C([2H])([2H])[C@]1(C(F)(F)F)Cn2nc(-c3ccc(F)cn3)c(-c3ccnc4[nH]nc(C)c34)c2CO1 (single isomer, unassigned) [Example 425, (*R)-2-(5-Fluoropyridin-2-yl)-6-(methyl-d3)-3-(3-methyl-1H-pyrazolo[3,4-b]pyridin-4-yl)-6-(trifluoromethyl)-6,7-dihydro-4H-pyrazolo[5,1-c][1,4]oxazine] | 2260 | 235
CC1(C)COCc2c(-c3ccnc4[nH]ncc34)c(-c3ccc(F)cc3)nn21 [Example 120, 2-(4-Fluorophenyl)-7,7-dimethyl-3-(1H-pyrazolo[3,4-b]pyridin-4-yl)-4,6-dihydropyrazolo[5,1-c][1,4]oxazine] | 201 | 13
Cn1ncc2c(-c3c(-c4ccc(F)cn4)nn4c3COC(C)(C)C4)ccnc21 [Example 153, 2-(5-Fluoro-2-pyridyl)-6,6-dimethyl-3-(1-methylpyrazolo[3,4-b]pyridin-4-yl)-4,7-dihydropyrazolo[5,1-c][1,4]oxazine] | 3710 | 176
COC[C@]1(F)CCc2c(-c3ccnc4[nH]ncc34)c(-c3ccc(F)cn3)nn2C1 (single isomer, unassigned) [Example 300, (*S)-4-[6-Fluoro-2-(5-fluoro-2-pyridyl)-6-(methoxymethyl)-5,7-dihydro-4H-pyrazolo[1,5-a]pyridin-3-yl]-1H-pyrazolo[3,4-b]pyridine] | 1910 | 75
CC[C@H]1Cn2nc(-c3ccc(F)cn3)c(-c3ccnc4[nH]ncc34)c2CO1 (single isomer, unassigned) [Example 96, (*S)-6-Ethyl-2-(5-fluoropyridin-2-yl)-3-(1H-pyrazolo[3,4-b]pyridin-4-yl)-6,7-dihydro-4H-pyrazolo[5,1-c][1,4]oxazine] | 2730 | 32
Fc1ccc(-c2nn3c(c2-c2ccnc4[nH]ncc24)[C@H]2CC[C@@H]3C2)nc1 (single isomer, unassigned) [Example 63, (4*S,7*R)-2-(5-Fluoropyridin-2-yl)-3-(1H-pyrazolo[3,4-b]pyridin-4-yl)-4,5,6,7-tetrahydro-4,7-methanopyrazolo[1,5-a]pyridine] | 320 | 12
Fc1ccc(-c2nn3c(c2-c2ccnc4[nH]ccc24)COCC3)nc1 [Example 1, 2-(5-Fluoro-2-pyridyl)-3-(1H-pyrrolo[2,3-b]pyridin-4-yl)-6,7-dihydro-4H-pyrazolo[5,1-c][1,4]oxazine] | 81 | 10

Continued by falling IC50 [1], values first:

IC50 [1] [nM] | IC50 [2] [nM] | Structure (SMILES)
198 | 7 | CC1(C(F)(F)F)Cn2nc(-c3ccc(F)cn3)c(-c3ccnc4[nH]ncc34)c2CO1 (stereo not drawn) [Example 176, 2-(5-Fluoropyridin-2-yl)-6-methyl-3-(1H-pyrazolo[3,4-b]pyridin-4-yl)-6-(trifluoromethyl)-6,7-dihydro-4H-pyrazolo[5,1-c][1,4]oxazine]
196 | 28 | CC1(C)COc2c(-c3ccnc4cc[nH]c34)c(-c3ccc(F)cc3)nn2C1 [Example 448, 2-(4-Fluorophenyl)-6,6-dimethyl-3-(1H-pyrrolo[3,2-b]pyridin-7-yl)-5,7-dihydropyrazolo[5,1-b][1,3]oxazine]
102 | 7 | CC1(C)Cn2nc(-c3ncc(F)cc3F)c(-c3ccnc4[nH]ncc34)c2CO1 [Example 166, 2-(3,5-Difluoropyridin-2-yl)-6,6-dimethyl-3-(1H-pyrazolo[3,4-b]pyridin-4-yl)-6,7-dihydro-4H-pyrazolo[5,1-c][1,4]oxazine]
89 | 18 | Cc1nc2[nH]ncc2c(-c2c(-c3ccc(F)cn3)nn3c2CC[C@@]2(C3)CC2(F)F)c1F (single isomer, unassigned) [Example 331, (*S)-2,2-Difluoro-3′-(5-fluoro-6-methyl-1H-pyrazolo[3,4-b]pyridin-4-yl)-2′-(5-fluoropyridin-2-yl)-4′,5′-dihydro-7′H-spiro[cyclopropane-1,6′-pyrazolo[1,5-a]pyridine]]
82 | 8 | Fc1ccc(-c2nn3c(c2-c2ccnc4[nH]ncc24)CC(F)(F)CC3)cc1 [Example 46, 4-(5,5-Difluoro-2-(4-fluorophenyl)-4,5,6,7-tetrahydropyrazolo[1,5-a]pyridin-3-yl)-1H-pyrazolo[3,4-b]pyridine]
79 | 8 | Cc1nc2[nH]ncc2c(-c2c(-c3ccc(F)cn3)nn3c2OC[C@H]2C[C@H]2C3)c1F (stereo in doubt) [Example 482, (5a*R,6a*S)-3-(5-Fluoro-6-methyl-1H-pyrazolo[3,4-b]pyridin-4-yl)-2-(5-fluoropyridin-2-yl)-5a,6,6a,7-tetrahydro-5H-cyclopropa[e]pyrazolo[5,1-b][1,3]oxazepine]
75 | 27 | CC1(C(F)(F)F)Cn2nc(-c3ccc(F)cc3)c(-c3ccn4nccc4c3)c2CO1 (single isomer, unassigned) [Example 413, (*S)-2-(4-Fluorophenyl)-6-methyl-3-(pyrazolo[1,5-a]pyridin-5-yl)-6-(trifluoromethyl)-6,7-dihydro-4H-pyrazolo[5,1-c][1,4]oxazine]
27 | 9 | Fc1ccc(-c2nn3c(c2-c2ccnc4[nH]ncc24)CC[C@H]2[C@@H]3C2(F)F)cc1 (stereo in doubt) [Example 355, (5a*S,6a*R)-6,6-Difluoro-2-(4-fluorophenyl)-3-(1H-pyrazolo[3,4-b]pyridin-4-yl)-5,5a,6,6a-tetrahydro-4H-cyclopropa[e]pyrazolo[1,5-a]pyridine]
20 | 2 | Cc1nc2[nH]ncc2c(-c2c(-c3ccc(F)cn3)nn3c2OCC2(CC2)C3)c1F [Example 463, 3′-(5-Fluoro-6-methyl-1H-pyrazolo[3,4-b]pyridin-4-yl)-2′-(5-fluoropyridin-2-yl)-5′H,7′H-spiro[cyclopropane-1,6′-pyrazolo[5,1-b][1,3]oxazine]]
12 | 2 | Cc1cc(-c2c(-c3ccc(F)cc3)nn3c2CCC(F)(F)C3)c2cn[nH]c2n1 [Example 43, 4-[6,6-Difluoro-2-(4-fluorophenyl)-5,7-dihydro-4H-pyrazolo[1,5-a]pyridin-3-yl]-6-methyl-1H-pyrazolo[3,4-b]pyridine]
9 | 1 | Cc1nc(-c2c(-c3ccc(F)cc3)nn3c2CC[C@]2(C3)CC2(F)F)c2cn[nH]c2n1 (single isomer, unassigned) [Example 336, (*R)-2,2-Difluoro-2′-(4-fluorophenyl)-3′-(6-methyl-1H-pyrazolo[3,4-d]pyrimidin-4-yl)-4′,5′-dihydro-7′H-spiro[cyclopropane-1,6′-pyrazolo[1,5-a]pyridine]]
8 | 2 | CC1(C)Cn2nc(-c3ccc(F)cn3)c(-c3ccnc(NC(=O)CC(F)(F)F)c3)c2CO1 [Example 133, 3,3,3-Trifluoro-N-(4-(2-(5-fluoropyridin-2-yl)-6,6-dimethyl-6,7-dihydro-4H-pyrazolo[5,1-c][1,4]oxazin-3-yl)pyridin-2-yl)propenamide]
6 | 2 | Cc1cc(-c2c(-c3ccc(F)cc3)nn3c2CC2(CC2)C3)c2cn[nH]c2n1 [Example 248, 2-(4-Fluorophenyl)-3-(6-methyl-1H-pyrazolo[3,4-b]pyridin-4-yl)spiro[4,6-dihydropyrrolo[1,2-b]pyrazole-5,1′-cyclopropane]]
2 | 1 | Cc1cc(-c2c(-c3ccc(F)cc3)nn3c2OCC(C)(C)C3)c2cn[nH]c2n1 [Example 213, 2-(4-Fluorophenyl)-6,6-dimethyl-3-(6-methyl-1H-pyrazolo[3,4-b]pyridin-4-yl)-6,7-dihydro-5H-pyrazolo[5,1-b][1,3]oxazine]
